Calls of active or inactive are those of the source. No cut-off for these calls is given here.
Legend:
[1] = target: T1, Estrogen receptor (Homo sapiens) (UniProt P03372); test: Agonist activity at gal-ERalpha expressed in african green monkey CV1 cells co-expressing MH100 by luciferase reporter gene assay; type: functional, cell-based; conditions: CV-1
T1 sequence (whole entry): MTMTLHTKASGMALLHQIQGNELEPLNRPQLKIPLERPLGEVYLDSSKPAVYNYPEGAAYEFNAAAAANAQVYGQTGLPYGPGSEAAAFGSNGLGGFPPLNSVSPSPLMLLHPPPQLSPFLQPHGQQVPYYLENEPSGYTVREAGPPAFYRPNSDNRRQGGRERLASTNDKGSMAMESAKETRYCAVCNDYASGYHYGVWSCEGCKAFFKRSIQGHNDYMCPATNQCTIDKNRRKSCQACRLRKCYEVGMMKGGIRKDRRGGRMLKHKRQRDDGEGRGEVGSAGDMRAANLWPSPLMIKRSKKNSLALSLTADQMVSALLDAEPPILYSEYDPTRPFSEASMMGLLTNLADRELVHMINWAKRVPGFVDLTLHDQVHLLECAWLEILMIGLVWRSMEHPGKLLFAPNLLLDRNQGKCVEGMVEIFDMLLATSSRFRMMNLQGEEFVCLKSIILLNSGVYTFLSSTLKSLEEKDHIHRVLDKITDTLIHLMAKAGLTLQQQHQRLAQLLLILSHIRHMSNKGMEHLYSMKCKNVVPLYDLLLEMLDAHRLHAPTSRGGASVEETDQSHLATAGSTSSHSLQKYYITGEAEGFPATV

[2] = target: T2, Glucocorticoid receptor (Homo sapiens) (UniProt P04150); test: Agonist activity at gal-GR expressed in african green monkey CV1 cells co-expressing MH100 by luciferase reporter gene assay; type: functional, cell-based; conditions: CV-1
T2 sequence (whole entry): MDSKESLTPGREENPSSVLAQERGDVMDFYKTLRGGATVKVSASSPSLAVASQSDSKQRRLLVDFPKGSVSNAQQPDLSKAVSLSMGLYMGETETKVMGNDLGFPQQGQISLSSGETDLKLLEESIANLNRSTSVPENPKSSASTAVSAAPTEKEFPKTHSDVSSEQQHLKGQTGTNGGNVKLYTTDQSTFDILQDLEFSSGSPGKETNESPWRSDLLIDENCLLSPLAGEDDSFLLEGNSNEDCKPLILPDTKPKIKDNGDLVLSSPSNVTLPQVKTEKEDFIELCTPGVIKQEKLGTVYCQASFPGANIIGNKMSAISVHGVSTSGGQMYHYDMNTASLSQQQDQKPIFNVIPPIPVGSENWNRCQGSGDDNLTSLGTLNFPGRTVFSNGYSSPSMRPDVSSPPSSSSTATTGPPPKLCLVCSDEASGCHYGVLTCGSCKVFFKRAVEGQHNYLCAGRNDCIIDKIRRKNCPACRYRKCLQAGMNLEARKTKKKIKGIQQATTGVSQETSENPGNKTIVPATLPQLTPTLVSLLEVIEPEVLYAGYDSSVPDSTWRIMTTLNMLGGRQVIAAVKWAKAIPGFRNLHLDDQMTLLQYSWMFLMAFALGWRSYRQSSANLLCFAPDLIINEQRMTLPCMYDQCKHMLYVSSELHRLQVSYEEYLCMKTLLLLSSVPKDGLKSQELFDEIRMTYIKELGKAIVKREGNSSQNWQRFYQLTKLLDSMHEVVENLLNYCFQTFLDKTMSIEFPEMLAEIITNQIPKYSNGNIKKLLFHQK

[3] = target: Oxysterols receptor LXR-alpha (Homo sapiens) (UniProt Q13133); test: Agonist activity at LXRalpha expressed in african green monkey CV1 cells co-expressing LXRE up to 10 uM by luciferase reporter gene assay relative to control; type: functional, cell-based; conditions: CV-1
[4] = target: T3, Peroxisome proliferator-activated receptor gamma (Homo sapiens) (UniProt P37231); test: Agonist activity at PPARgamma expressed in african green monkey CV1 cells co-expressing PPRE up to 10 uM by luciferase reporter gene assay relative to control; type: functional, cell-based; conditions: CV-1
T3 sequence (whole entry): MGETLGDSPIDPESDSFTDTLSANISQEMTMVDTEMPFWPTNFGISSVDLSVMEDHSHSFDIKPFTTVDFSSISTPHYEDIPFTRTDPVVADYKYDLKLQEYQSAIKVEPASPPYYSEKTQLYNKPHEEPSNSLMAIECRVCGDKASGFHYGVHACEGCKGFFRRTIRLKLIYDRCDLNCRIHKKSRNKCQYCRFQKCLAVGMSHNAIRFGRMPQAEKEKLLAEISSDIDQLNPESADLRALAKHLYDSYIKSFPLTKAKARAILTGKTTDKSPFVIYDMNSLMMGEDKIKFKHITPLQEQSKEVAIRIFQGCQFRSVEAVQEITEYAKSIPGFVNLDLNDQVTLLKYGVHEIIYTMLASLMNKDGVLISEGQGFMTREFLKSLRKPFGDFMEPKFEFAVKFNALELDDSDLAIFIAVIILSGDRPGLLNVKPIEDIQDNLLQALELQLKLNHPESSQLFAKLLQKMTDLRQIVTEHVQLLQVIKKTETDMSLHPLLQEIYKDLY

[5] = target: Nuclear receptor subfamily 1 group I member 2 (Homo sapiens, UniProt O75469); test: Agonist activity at SXR expressed in african green monkey CV1 cells co-expressing MH100 up to 10 uM by luciferase reporter gene assay relative to control; type: functional, cell-based; conditions: cv-1
[6] = target: T4, Peroxisome proliferator-activated receptor delta (Homo sapiens) (UniProt Q03181); test: Antagonist activity at PPARdelta expressed in african green monkey CV1 cells co-expressing MH100 by luciferase reporter gene assay; type: functional, cell-based; conditions: CV-1
T4 sequence (whole entry): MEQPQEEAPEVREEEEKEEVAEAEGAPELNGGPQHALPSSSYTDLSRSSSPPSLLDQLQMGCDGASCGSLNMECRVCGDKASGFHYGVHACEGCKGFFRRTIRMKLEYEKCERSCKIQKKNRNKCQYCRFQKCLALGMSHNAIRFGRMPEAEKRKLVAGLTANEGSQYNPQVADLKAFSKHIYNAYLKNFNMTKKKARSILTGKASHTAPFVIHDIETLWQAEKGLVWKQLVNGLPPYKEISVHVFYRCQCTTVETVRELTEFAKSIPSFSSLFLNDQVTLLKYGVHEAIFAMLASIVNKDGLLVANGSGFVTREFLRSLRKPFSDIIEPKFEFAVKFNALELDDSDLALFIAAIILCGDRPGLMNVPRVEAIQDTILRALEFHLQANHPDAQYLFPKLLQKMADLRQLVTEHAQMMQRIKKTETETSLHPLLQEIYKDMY

[7] = target: T3, Peroxisome proliferator-activated receptor gamma (Homo sapiens); test: Antagonist activity at PPARgamma expressed in african green monkey CV1 cells co-expressing PPRE by luciferase reporter gene assay; type: functional, cell-based; conditions: CV-1
Estrogen receptor = Estrogen receptor (Homo sapiens, UniProt P03372); test: Antagonist activity at gal-ERalpha expressed in african green monkey CV1 cells co-expressing MH100 by luciferase reporter gene assay; type: functional, cell-based, CV-1
[8] = target: T2, Glucocorticoid receptor (Homo sapiens); test: Antagonist activity at gal-GR expressed in african green monkey CV1 cells co-expressing MH100 at 10 uM by luciferase reporter gene assay; type: functional, cell-based; conditions: CV-1
[9] = Cmax in CD rat at 3 mg/kg, iv; type: ADME, organism-based; design: dose 3 mg/kg, route intravenous; conditions: in vivo
[10] = Clearance in CD rat at 3 mg/kg, iv; type: ADME, organism-based; design: dose 3 mg/kg, route intravenous; conditions: in vivo
[11] = Half life in CD rat at 3 mg/kg, po; type: ADME, organism-based; design: dose 3 mg/kg, route oral; conditions: in vivo

Chain of Nuclear receptor subfamily 1 group I member 2 (O75469 whole entry): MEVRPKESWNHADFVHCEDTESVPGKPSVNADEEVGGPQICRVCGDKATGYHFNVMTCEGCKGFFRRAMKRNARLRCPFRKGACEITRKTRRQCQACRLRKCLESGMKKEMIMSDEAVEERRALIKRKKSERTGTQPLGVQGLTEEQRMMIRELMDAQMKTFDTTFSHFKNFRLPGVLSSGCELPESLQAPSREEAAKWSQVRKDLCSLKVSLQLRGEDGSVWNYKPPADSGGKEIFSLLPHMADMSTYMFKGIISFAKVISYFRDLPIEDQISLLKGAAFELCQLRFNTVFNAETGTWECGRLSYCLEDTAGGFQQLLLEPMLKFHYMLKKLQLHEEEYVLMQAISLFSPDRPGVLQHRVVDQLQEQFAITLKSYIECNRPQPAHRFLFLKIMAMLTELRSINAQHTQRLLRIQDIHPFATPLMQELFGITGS
Chain of Oxysterols receptor LXR-alpha (Homo sapiens) (Q13133 whole entry): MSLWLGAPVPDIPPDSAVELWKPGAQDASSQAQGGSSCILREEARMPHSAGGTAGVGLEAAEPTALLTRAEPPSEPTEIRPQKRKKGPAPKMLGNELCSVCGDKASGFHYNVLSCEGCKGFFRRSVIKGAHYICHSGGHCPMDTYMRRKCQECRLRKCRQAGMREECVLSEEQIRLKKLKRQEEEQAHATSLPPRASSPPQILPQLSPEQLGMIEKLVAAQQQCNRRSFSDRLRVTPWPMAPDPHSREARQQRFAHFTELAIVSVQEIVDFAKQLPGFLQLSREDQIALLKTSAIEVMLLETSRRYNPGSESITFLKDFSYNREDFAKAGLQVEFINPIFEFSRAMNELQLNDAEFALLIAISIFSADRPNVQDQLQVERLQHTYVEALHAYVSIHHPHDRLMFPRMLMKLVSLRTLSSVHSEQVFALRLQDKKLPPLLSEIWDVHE

Which results are given for `CC(C)OC(=O)C1=CN(C(=O)c2ccc(F)c(F)c2)CC(C)(C)c2c1[nH]c1ccccc21` [TUROFEXORATE ISOPROPYL]?
Activity [1]: inactive; Activity [2]: inactive; Activity [3]: inactive; Activity [4]: inactive; Activity [5]: Not Active; Activity [6]: inactive; Activity [7]: inactive; IC50 (Estrogen receptor): 10 µM; inhibition [8]: 35%; Cmax [9]: 30.5 µM; clearance [10]: 5.68 mL/min/kg; half-life [11]: 24.6 h

— ChEMBL document CHEMBL1140941 (J Med Chem, 2009)
